Source: US20130123222A1, “Synergistic Anti-Cancer Activity of SR16388 with Anti-Mitotic Drugs” (SRI INTERNATIONAL, INC., priority 2011, published 2013)

Columns and labels:
[1] = test system: HCC2998; experiment: 11×7 synergism hit rate; format: cell-based; details: Colon Cancer HCC2998, combination with SR16388
Text: (§1) SR16388 was synthesized in house.
(§2) Within the same type of cancer cells, some cell lines have more synergistic hits than others. Melanoma and breast cancer cell lines had the highest hit rate.

[2] = test system: EKVX; experiment: 11×7 synergism hit rate; format: cell-based; details: NSCLC EKVX, combination with SR16388
Text: as §1, §2

[3] = test system: U031; experiment: 11×7 synergism hit rate; format: cell-based; details: Renal Cancer U031, combination with SR16388
Text: as §1, §2

[4] = test system: ADRRES; experiment: 11×7 synergism hit rate; format: cell-based; details: Ovarian Cancer ADRRES, combination with SR16388
Text: as §1, §2

[5] = test system: NCIH226; experiment: 11×7 synergism hit rate; format: cell-based; details: NSCLC NCIH226, combination with SR16388
Text: as §1, §2

[6] = test system: SF539; experiment: 11×7 synergism hit rate; format: cell-based; details: CNS Cancer SF539, combination with SR16388
Text: as §1, §2

[7] = test system: SNB75; experiment: 11×7 synergism hit rate; format: cell-based; details: CNS Cancer SNB75, combination with SR16388
Text: as §1, §2

[8] = test system: MOLT4; experiment: 11×7 synergism hit rate; format: cell-based; details: Leukemia MOLT4, combination with SR16388
Text: as §1, §2

[9] = test system: BT549; experiment: 11×7 synergism hit rate; format: cell-based; details: Breast Cancer BT549, combination with SR16388
Text: as §1, §2

[10] = test system: SKMEL2; experiment: 11×7 synergism hit rate; format: cell-based; details: Melanoma SKMEL2, combination with SR16388
Text: as §1, §2

[11] = test system: HT29; experiment: 11×7 synergism hit rate; format: cell-based; details: Colon Cancer HT29, combination with SR16388
Text: as §1, §2

[12] = test system: OVCAR8; experiment: 11×7 synergism hit rate; format: cell-based; details: Ovarian Cancer OVCAR8, combination with SR16388
Text: as §1, §2

[13] = test system: IGROV1; experiment: 11×7 synergism hit rate; format: cell-based; details: Ovarian Cancer IGROV1, combination with SR16388
Text: as §1, §2

[14] = test system: A498; experiment: 11×7 synergism hit rate; format: cell-based; details: Renal Cancer A498, combination with SR16388
Text: as §1, §2

[15] = test system: SF268; experiment: 11×7 synergism hit rate; format: cell-based; details: CNS Cancer SF268, combination with SR16388
Text: as §1, §2

[16] = test system: NCIH522; experiment: 11×7 synergism hit rate; format: cell-based; details: NSCLC NCIH522, combination with SR16388
Text: as §1, §2

[17] = test system: RPMI8226; experiment: 11×7 synergism hit rate; format: cell-based; details: Leukemia RPMI8226, combination with SR16388
Text: as §1, §2

[18] = test system: various cancer cell lines; experiment: 11×7 synergism hit rate over all cell lines (by algorism); format: cell-based; details: for % Hit rate: combination with SR16388, identified by algorism, all cell lines; for interaction with SR16388 in 11×7 experiments: in combination with SR16388
Text: as §1, §2

[19] = test system: panel of 48 to 60 cell lines; experiment: 5×4 combination screen with SR16388, CellTiter-Glo viability; synergy by pattern recognition; details: for no effect (number of cell lines) / synergy (number of cell lines) / % synergy: in combination with SR16388, 5x4-T1; for no effect (number of cell lines) / synergy (number of cell lines): pattern recognition, of 60 cell lines incl. no data; for % synergy: share of cell lines with data
Procedure: Cells were treated with compounds alone or in combination for three days and CellTiter-Glo® Luminescent Cell Viability Assay (Promega Corp.) was used as the endpoint to measure cell viability.
Cells were cultured in DMEM with 10% fetal bovine serum and used between passage 2 and passage 20. Cells were harvested on Day-1 (FIG. 1A) and re-supspended to the corresponding seeding density and seeded with Wellmate (ThermoFisher) to 384 plates (BD or GBO).
40 mM Compound stocks in 100% DMSO were made. Master plates were made with Janus (PerkinElmer), then further diluted and added to the cell plates with Matrix Platemate (Thermo) on Day 0.
CellTiter-Glo® Luminescent Cell Viability Assay (Promega Corp.) was used to measure ATP as an indicator of viable cells on Day 3 using Envision (PerkinElmer) and back up reader Analyst HT (MDS) and Gen5 (BioTek).
Single point, 5×4 checkque board platemap was used in the initial screening.
Relative Luminescent Units (RLU) were plotted against corresponding drug concentrations and fitted with standard four parameter sigmoidal curve with custom coded R program or Calcusyn (Biosoft, Cambridge, UK).

[20] = test system: cancer cell lines; experiment: Combination cell viability assay, general observations on ratios and confirmed synergy; format: cell-based; details: for interaction with SR16388 (confirmed): in combination with SR16388
Procedure: Cells were treated with compounds alone or in combination for three days and CellTiter-Glo® Luminescent Cell Viability Assay (Promega Corp.) was used as the endpoint to measure cell viability. […] Cells were harvested on Day-1 (FIG. 1A) and re-supspended to the corresponding seeding density and seeded with Wellmate (ThermoFisher) to 384 plates (BD or GBO). […] Master plates were made with Janus (PerkinElmer), then further diluted and added to the cell plates with Matrix Platemate (Thermo) on Day 0. CellTiter-Glo® Luminescent Cell Viability Assay (Promega Corp.) was used to measure ATP as an indicator of viable cells on Day 3 using Envision (PerkinElmer) and back up reader Analyst HT (MDS) and Gen5 (BioTek). Relative Luminescent Units (RLU) were plotted against corresponding drug concentrations and fitted with standard four parameter sigmoidal curve with custom coded R program or Calcusyn (Biosoft, Cambridge, UK).

[21] = test system: A549; experiment: 11×7 synergism hit rate; format: cell-based; details: NSCLC A549, combination with SR16388
Text: as §1

[22] = test system: panel of 48 to 60 cell lines; experiment: 5×4 combination screen with SR16388; synergism hit rate by algorithm (Z score); format: cell-based; details: in combination with SR16388, all 20 (5×4) dose combinations
Procedure: as §1
5) A “combination score” was assigned to each specific combination (Ca1b1x): C=1 if Za1b1x>3*SD and C=0 if Za1b1x≦3*SD score);
6) Hit rate of each combination was calculated by comparing the sum of the combination scores of all 20 (5×4) dose combinations with all cell lines to the total number of data points of that specific combination;
7) Hit rate were ranked from high to low to identify potential synergistic combinations.

Compound	% Hit rate [1] [%]	% Hit rate [2] [%]	% Hit rate [3] [%]	% Hit rate [4] [%]	% Hit rate [5] [%]	% Hit rate [6] [%]	% Hit rate [7] [%]	% Hit rate [8] [%]	% Hit rate [9] [%]	% Hit rate [10] [%]	% Hit rate [11] [%]	% Hit rate [12] [%]	% Hit rate [13] [%]	% Hit rate [14] [%]	% Hit rate [15] [%]	% Hit rate [16] [%]	% Hit rate [17] [%]	% Hit rate [18] [%]	interaction with SR16388 in 11×7 experiments [18]	interaction with SR16388 in the screen of 30 cancer therapeutic agents [19]	other results
CC(=O)O[C@H]1C(=O)[C@@]2(C)[C@H]([C@H](OC(=O)c3ccccc3)[C@]3(O)C[C@H](OC(=O)[C@H](O)[C@@H](NC(=O)c4ccccc4)c4ccccc4)C(C)=C1C3(C)C)[C@]1(OC(C)=O)CO[C@@H]1C[C@@H]2O [Paclitaxel]	12	0	9	1	27	19	13	21	3	29	22	13	18	10	22	10	5	14.88	synergistic effect	Synergistic anti-proliferation	no effect (number of cell lines) [19]: 18; synergy (number of cell lines) [19]: 40; % synergy [19]: 69%; interaction with SR16388 (confirmed) [20]: synergistic anti-proliferation effect; interaction with more paclitaxel in the mixture ([20]; more paclitaxel than SR16388:Paclitaxel 67:33): antagonist interactions
CC[C@]1(O)C[C@H]2CN(CCc3c([nH]c4ccccc34)[C@@](C(=O)OC)(c3cc4c(cc3OC)N(C=O)[C@H]3[C@@](O)(C(=O)OC)[C@H](OC(C)=O)[C@]5(CC)C=CCN6CC[C@]43[C@@H]65)C2)C1 [Vincristine]	4	1	12	1	8	12	9	16	9	25	10	10	8	12	18	10	0	10.91	synergistic effect	Synergistic anti-proliferation	no effect (number of cell lines) [19]: 19; synergy (number of cell lines) [19]: 23; % synergy [19]: 55%; interaction with SR16388 (confirmed) [20]: synergistic anti-proliferation effect; % Hit rate [21]: 10%; % hit/combo [22]: 2.08%
CC[C@]1(O)C[C@@H]2CN(CCc3c([nH]c4ccccc34)[C@@](C(=O)OC)(c3cc4c(cc3OC)N(C)[C@H]3[C@@](O)(C(=O)OC)[C@H](OC(C)=O)[C@]5(CC)C=CCN6CC[C@]43[C@@H]65)C2)C1 [Vinblastine]	6	1	3	0	8	8	3	8	1	3	8	5	0	4	6	4	0	4.94	synergistic effect		% Hit rate [21]: 0%
CC(=O)O[C@@]12CO[C@@H]1C[C@H](O)[C@@]1(C)C(=O)[C@H](O)C3=C(C)[C@@H](OC(=O)[C@H](O)[C@@H](NC(=O)OC(C)(C)C)c4ccccc4)C[C@@](O)([C@@H](OC(=O)c4ccccc4)[C@H]21)C3(C)C [Docetaxel]	6	0	4	3	19	13	5	13	5	12	21	6	3	4	18	8	1	10.69	synergistic effect	Synergistic anti-proliferation	no effect (number of cell lines) [19]: 51; synergy (number of cell lines) [19]: 7; % synergy [19]: 12%; interaction with SR16388 (confirmed) [20]: synergistic anti-proliferation effect; % Hit rate [21]: 4%; % hit/combo [22]: 0.58%
